According to patent US9814714B2, “Kinase modulation, and indications therefor” (Plexxikon Inc., priority 2015, dated 2017):
Where two headings read alike, the source gives them in different places.

Tests used:
BRAF^V600E = BRAF^V600E (Homo sapiens, UniProt P15056, V600E); experiment: In vitro RAF kinase biochemical assay, BRAF V600E
Method: (§1) The in vitro RAF kinase activities were determined by measuring phosphorylation of a biotinylated substrate peptide as described in Tsai et al 2008. Formula II was tested against a panel of 287 kinases at concentrations of 1 μM in duplicate. […] The 287 kinases represent all major branches of the kinome phylogenetic tree. The inhibition screen of 287 kinases was carried out under contract as complementary panels at Invitrogen (Life Technologies, WI, USA) SelectScreen™ profiling service, DiscoverX (CA, USA) KINOMEScan™ service, and Reaction Biology Corporation (PA, USA) Kinase HotSpot^SM service.
BRAF proteins were produced in insect cells at Plexxikon Inc. as N-terminally His-tagged fragments encompassing the kinase domain.
(§2) 1) Test compounds in DMSO were serially diluted and plated into 384-well assay plates at 1 μL/well.
(§3) 2) Added were 15 μL/well of RAF enzyme and biotinylated-MEK1 substrate in kinase buffer.
(§4) 3) Added were 4 μL of ATP (500 μM) in kinase buffer.
(§5) 5) After a brief spin down, the plate was incubated at about room temperature for 40-50 minutes. 6) Added was 5 μL of Stop buffer at final EDTA 20 mM; anti-phospho-MEK1 1:2,500; donor/acceptor beads 3 μg/mL. 7) After brief spin down, the plate was incubated at room temperature for about 3 hours. 8) The plate was read on the Envision multilabel plate reader (Perkin Elmer). […] 2. Results

BRAF = BRAF (Homo sapiens, UniProt P15056); experiment: In vitro RAF kinase biochemical assay, wild-type BRAF
Sequence of BRAF (P15056 416-766): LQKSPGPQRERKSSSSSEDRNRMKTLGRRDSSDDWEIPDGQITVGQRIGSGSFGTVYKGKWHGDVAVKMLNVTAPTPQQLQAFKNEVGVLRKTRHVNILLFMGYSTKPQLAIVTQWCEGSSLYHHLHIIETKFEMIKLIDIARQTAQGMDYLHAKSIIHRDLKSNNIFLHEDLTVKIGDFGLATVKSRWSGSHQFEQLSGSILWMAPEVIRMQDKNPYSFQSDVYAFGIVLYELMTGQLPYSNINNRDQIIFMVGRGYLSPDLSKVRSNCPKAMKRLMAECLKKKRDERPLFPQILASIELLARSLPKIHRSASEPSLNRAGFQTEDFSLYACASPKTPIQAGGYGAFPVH
Method: as §1
BRAF, residues L416 through H766 fused at the N-terminus with a GST tag, was produced in insect cells, and BRAF was purchased from Millipore (Catalog #14-530).
as §2, §3, §4, §5

CRAF = molecular target: T1, CRAF (Homo sapiens, UniProt P04049, Y340D/Y341D); experiment: In vitro RAF kinase biochemical assay, activated CRAF
T1 construct: GST (N); purchased Millipore 14-352; host or cells: insect cells
T1 sequence (P04049 307-648 Y340D/Y341D): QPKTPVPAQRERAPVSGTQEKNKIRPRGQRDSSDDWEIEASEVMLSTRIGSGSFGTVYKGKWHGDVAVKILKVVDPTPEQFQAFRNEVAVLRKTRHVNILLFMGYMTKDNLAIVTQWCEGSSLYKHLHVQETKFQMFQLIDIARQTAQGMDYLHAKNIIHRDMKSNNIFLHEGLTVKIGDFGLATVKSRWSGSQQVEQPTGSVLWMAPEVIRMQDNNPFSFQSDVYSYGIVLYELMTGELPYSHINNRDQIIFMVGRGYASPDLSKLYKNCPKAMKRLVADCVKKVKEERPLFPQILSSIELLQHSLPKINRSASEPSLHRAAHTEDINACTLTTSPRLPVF
Method: as §2, §3, §4, §5

[1] = test system: pMEK in B9 cells (HRAS-Q61L); experiment: Phospho-MEK AlphaScreen assay, pMEK activation in B9; assay type: cell-based, murine; details: Mus musculus
Method: (§6) Using AlphaScreen® technology, the ability of Formula I to affect the phosphorylation of ERK and MEK in the cells was measured quantitatively. Following treatment with compound, the cells were lysed, and a sample of the lysate was transferred to an assay plate. The lysate was mixed with antibodies directed against total ERK/MEK, antibodies that recognize specific phosphorylation sites on ERK/MEK, AlphaScreen® anti-mouse IgG Acceptor beads, and Streptavidin Donor beads. Upon excitation of the donor beads with laser light at 680 nm, singlet oxygen was produced. This singlet oxygen was rapidly quenched, unless the AlphaScreen® Acceptor beads were in close proximity, in which case a proximity signal can be measured at 580 nm. In the presence of phosphorylated ERK/MEK, there is a very strong proximity signal. BRAF-V600 inhibitors affect a decrease in this proximity signal in cells expressing BRAF-V600E (e.g. A375) through a decrease in phosphorylation of the BRAF effectors ERK and MEK.
(§7) 1. One day before the assay, 50,000 cells were plated in each well of a 96-well tissue-culture-treated plate (Corning #3610) in a 50 μL volume. Cells were incubated at 37° C. overnight.
(§8) 2. Compounds were diluted in DMSO to 500× final concentration. Each compound was plated as an 8-point titration, using 1:3 dilutions in DMSO. The maximum concentration was about 5 mM.
3. […]

[2] = test system: pMEK in IPC-298 cells (NRAS-Q61L); experiment: Phospho-MEK AlphaScreen assay, pMEK activation in IPC-298; assay type: cell-based; details: Homo sapiens
Method: as §6, §7, §8
3. […]

[3] = test system: pMEK in HCT116 cells (KRAS-G13D); experiment: Phospho-MEK AlphaScreen assay, pMEK activation in HCT116; assay type: cell-based; details: Homo sapiens, HCT-116
Method: as §6, §7, §8
3. […]

[4] = test system: phospho-ERK1/2 (T202/Y204, pERK) in RAS mutant and BRAF^V600E cell lines; experiment: pERK screen in cell line panel: ERK pathway inhibition index (EPII); assay type: cell-based; details: for pERK activation in RAS mutant cell lines (in words): at the concentrations tested; for ERK pathway inhibition index (EPII): ratio between mean pERK activation EC50 (B9, IPC-298, HCT116) and mean pERK inhibition IC50 (A375, COLO829)
Method: Phospho-ERK AlphaScreen® assay: The degree of ERK phosphorylation was determined using an AlphaScreen® assay where an increase in ERK1/2 phosphorylation at Thr202/Tyr204 brought the donor and acceptor AlphaScreen® beads into close proximity, generating a signal for quantification. To determine the effects of compound treatment on phosphorylation of ERK1/2, cells were plated in a 96-well plate and treated with an 8-point titration of compound for one hour at 37° C. before lysis. To detect pERK, cell lysates were incubated with streptavidin-coated AlphaScreen® donor beads, anti-mouse IgG AlphaScreen® acceptor beads, a biotinylated anti-ERK1/2 rabbit antibody, and a mouse antibody that recognizes ERK1/2 only when it is phosphorylated on Thr202 and Tyr204. The biotinylated ERK1/2 antibody binds to both the streptavidin-coated AlphaScreen® donor beads and to ERK1/2 (regardless of its phosphorylation state), and the phospho-ERK1/2 antibody binds to the acceptor beads and to ERK1/2 that is phosphorylated at Thr202/Tyr204. An increase in ERK1/2 phosphorylation at Thr202/Tyr204 brings the donor and acceptor AlphaScreen® beads into close proximity, generating a signal that can be quantified on an EnVision reader (Perkin Elmer).

[5] = test system: cell model that expresses the same HRAS mutation prevalent in squamous cell tumors; experiment: HRAS mutant cell model: growth and MAPK pathway response gene expression; assay type: cell-based
From the text: In a cell model that expresses the same HRAS mutation prevalent in squamous cell tumors from patients treated with RAF inhibitors, first-generation RAF inhibitors stimulate the in vitro and in vivo growth of the cells and induce the expression of MAPK pathway response genes including EGFR ligands. […] Based on these advantageous properties of the compound of either Formula I or Formula II, enhanced tolerability and, in turn, increased drug dosage may be obtained.

[6] = Table 1, average of more than 4 experiments, read-out: Biochemical IC50 BRAF^V600E
[7] = Table 1, average of more than 4 experiments

Sequence of BRAF^V600E (P15056 448-723 V600E): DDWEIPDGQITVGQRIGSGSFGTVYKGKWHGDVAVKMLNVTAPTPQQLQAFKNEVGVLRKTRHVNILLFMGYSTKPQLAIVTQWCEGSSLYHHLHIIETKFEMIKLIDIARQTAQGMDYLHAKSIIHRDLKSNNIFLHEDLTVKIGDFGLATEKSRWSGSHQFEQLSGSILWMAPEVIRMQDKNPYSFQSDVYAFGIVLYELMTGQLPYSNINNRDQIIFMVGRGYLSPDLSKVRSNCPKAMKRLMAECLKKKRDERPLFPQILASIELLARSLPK

O=C(c1c(F)ccc(NS(=O)(=O)N2CC[C@@H](F)C2)c1F)c1c[nH]c2ncc(-c3cnc(C4CC4)nc3)cc12 [Formula I, (3R)—N-[3-[5-(2-cyclopropylpyrimidin-5-yl)-1H-pyrrolo[2,3-b]pyridine-3-carbonyl]-2,4-difluorophenyl]-3-fluoropyrrolidine-1-sulfonamide]
IC50 against mutated BRAF kinases including BRAFV600E (in words) (BRAF^V600E): single digit | IC50 (BRAF^V600E; [6]): 4.2 nM | IC50 (BRAF^V600E; Table 3, ATP 100 μM, read-out: Biochemical IC50 BRAF_V600E): 4.4 nM | IC50 (BRAF; [7]): 140 nM | IC50 (BRAF; Table 3, ATP 100 μM): 14.3 nM | IC50 (CRAF; [7]): 91 nM | IC50 (CRAF; Table 3, ATP 100 μM): 22.6 nM | EC50 [1]: 10000 nM | EC50 [2]: 10000 nM | EC50 [3]: 10000 nM | pERK activation in RAS mutant cell lines (in words) [4]: essentially no pERK activation | ERK pathway inhibition index (EPII) [4]: >10,000 | Stimulation of in vitro and in vivo growth and induction of MAPK pathway response genes including EGFR ligands (in words) [5]: no such effect

CCN(C)S(=O)(=O)Nc1ccc(F)c(C(=O)c2c[nH]c3ncc(-c4cnc(C5CC5)nc4)cc23)c1F [Formula II, 5-(2-cyclopropylpyrimidin-5-yl)-3-[3-[[ethyl(methyl)sulfamoyl]amino]-2,6-difluoro-benzoyl]-1H-pyrrolo[2,3-b]pyridine]
IC50 against mutated BRAF kinases including BRAFV600E (in words) (BRAF^V600E): single digit | IC50 (BRAF^V600E; [6]): 3.8 nM | IC50 (BRAF; [7]): 14 nM | IC50 (CRAF; [7]): 23 nM | pERK activation in RAS mutant cell lines (in words) [4]: essentially no pERK activation | ERK pathway inhibition index (EPII) [4]: >50,000 | Stimulation of in vitro and in vivo growth and induction of MAPK pathway response genes including EGFR ligands (in words) [5]: no such effect

CCCS(=O)(=O)Nc1ccc(F)c(C(=O)c2c[nH]c3ncc(-c4ccc(Cl)cc4)cc23)c1F [Vemurafenib, vemurafenib, reference compound]
EC50 [1]: 588 nM | EC50 [2]: 1010 nM | EC50 [3]: 769 nM
